# Test: Test 3-1: metabolic stability test in human hepatic microsome
# Format: in vitro ADME
# Conditions: Test 3-1: microsome 0.1 mg/mL, test compound 0.1 μmol/L, 37° C., 30 minutes
# Protocol: Test 3-1: Metabolic Stability Test in Human Hepatic Microsome
# The metabolic stability of the present compound in human hepatic microsome was evaluated as mentioned below. Human hepatic microsome was obtained from Xenontech. Human hepatic microsome, NADPH, and each test compound were mixed in 25 mmol/L phosphate buffer solution (pH 7.4) to reach the following concentrations as shown below, and the mixture was incubated at 37° C. for 30 minutes. • Human hepatic microsome: 0.1 mg/mL • NAPDH: 3.2 mmol/L • Test compound: 0.1 μmol/L
# The residual ratio of test compound in each sample after 30 minutes was measured by LC-MS, and the metabolic stability in human hepatic microsome was calculated from the following formula. Metabolic stability in human hepatic microsome(mL/min/mg protein)=−LN(residual ratio)/30/0.1
row,Structure (SMILES),Metabolic stability in human hepatic microsome
1,"CCN(CCN1CCC(c2noc3cc(F)ccc23)CC1)C(=O)[C@@H](C)O [Example 1, (2R)-N-Ethyl-N-{2-[4-(6-fluoro-1,2-benzoisoxazol-3-yl)piperidin-1-yl]ethyl}-2-hydroxypropanamide]",<0.05 mL/min/mg protein
2,"CCN(CCN1CCC(n2ncc3cc(F)ccc32)CC1)C(=O)CCO [Example 2, N-Ethyl-N-{2-[4-(5-fluoro-1H-indazol-1-yl)piperidin-1-yl]ethyl}-3-hydroxypropanamide]",<0.05 mL/min/mg protein
3,"CCN(CCN1CCC(n2ncc3cc(F)ccc32)CC1)C(=O)[C@@H](C)O [Example 3, (2R)-N-Ethyl-N-{2-[4-(5-fluoro-1H-indazol-1-yl)piperidin-1-yl]ethyl}-2-hydroxypropanamide]",<0.05 mL/min/mg protein
4,CCN(CCN1CCC(c2noc3cc(F)ccc23)CC1)C(=O)C(C)O (centres unmarked) [Example 4],<0.05 mL/min/mg protein
5,CCN(CCN1CCC(c2noc3cc(F)ccc23)CC1)C(=O)C(C)(C)O [Example 6],0.053 mL/min/mg protein
6,CCN(CCN1CCC(c2noc3cc(F)ccc23)CC1)C(=O)C(C)(C)CO [Example 7],0.08 mL/min/mg protein
7,CCN(CCN1CCC(c2noc3cc(F)ccc23)CC1)C(=O)C1CCC(O)CC1 (centres unmarked) [Example 9],<0.05 mL/min/mg protein
8,CCN(CCN1CCC(c2noc3cc(F)ccc23)CC1)C(=O)CC(C)O (centres unmarked) [Example 10],<0.05 mL/min/mg protein
9,CCN(CCN1CCC(c2noc3cc(F)ccc23)CC1)C(=O)C1(O)CCOCC1 [Example 11],<0.05 mL/min/mg protein
10,CCN(CCN1CCC(c2noc3cc(F)ccc23)CC1)C(=O)CO [Example 12],0.089 mL/min/mg protein
11,CCN(CCN1CCC(c2noc3cc(F)c(C)cc23)CC1)C(=O)[C@H](C)O [Example 13],0.054 mL/min/mg protein
12,"CCN(CCN1CCC(c2noc3cc(F)ccc23)CC1)C(=O)C(O)COC (centres unmarked) [Example 18, N-Ethyl-N-{2-[4-(6-fluoro-1,2-benzoisoxazol-3-yl)piperidin-1-yl]ethyl}-2-hydroxy-3-methoxypropanamide]",<0.05 mL/min/mg protein
13,"CCN(CCN1CCC(c2n[nH]c3cc(F)ccc23)CC1)C(=O)C(C)O (centres unmarked) [Example 19, N-Ethyl-N-{2-[4-(6-fluoro-1H-indazol-3-yl)piperidin-1-yl]ethyl}-2-hydroxypropanamide]",<0.05 mL/min/mg protein
14,"CCN(CCN1CCC(c2c[nH]c3cc(F)ccc23)CC1)C(=O)[C@H](C)O [Example 20, (2S)-N-Ethyl-N-{2-[4-(6-fluoro-1H-indol-3-yl)piperidin-1-yl]ethyl}-2-hydroxypropanamide]",<0.05 mL/min/mg protein
15,"CCN(CCN1CCC(n2ncc3cc(F)ccc32)CC1)C(=O)[C@H](C)O [Example 21, (2S)-N-Ethyl-N-{2-[4-(5-fluoro-1H-indazol-1-yl)piperidin-1-yl]ethyl}-2-hydroxypropanamide]",<0.05 mL/min/mg protein
16,"CCN(CCN1CCC(c2c[nH]c3ccccc23)CC1)C(=O)C(C)O (centres unmarked) [Example 22, N-Ethyl-2-hydroxy-N-{2-[4-(1H-indol-3-yl)piperidin-1-yl]ethyl}propanamide]",<0.05 mL/min/mg protein
17,"CCN(CCN1CCC(c2c[nH]c3ccccc23)CC1)C(=O)[C@H](C)O [Example 23, (2S)-N-Ethyl-2-hydroxy-N-{2-[4-(1H-indol-3-yl)piperidin-1-yl]ethyl}propanamide]",<0.05 mL/min/mg protein
18,CCN(CCN1CCC(c2noc3cc(F)ccc23)CC1)C(=O)C1(O)CC1 [Example 24],<0.05 mL/min/mg protein
19,CCN(CCN1CCC(c2noc3ccccc23)CC1)C(=O)C(C)O (centres unmarked) [Example 25],<0.05 mL/min/mg protein

row,Structure (SMILES),Metabolic stability in human hepatic microsome
1,CCN(CCN1CCN(c2noc3ccccc23)CC1)C(=O)C(C)O (centres unmarked) [Example 26],<0.05 mL/min/mg protein
2,CCN(CCN1CCN(c2noc3cc(F)ccc23)CC1)C(=O)C(C)O (centres unmarked) [Example 27],<0.05 mL/min/mg protein
3,CC[C@@H](O)C(=O)N(CC)CCN1CCC(c2noc3cc(F)ccc23)CC1 [Example 29],<0.05 mL/min/mg protein
4,CC(O)C(=O)N(CCN1CCC(c2noc3cc(F)ccc23)CC1)CC1CC1 (centres unmarked) [Example 30],<0.05 mL/min/mg protein
5,CC(O)C(=O)N(CCN1CCC(c2noc3cc(F)ccc23)CC1)C(C)C (centres unmarked) [Example 31],<0.05 mL/min/mg protein
6,CCN(CCN1CCC(c2noc3cc(F)ccc23)CC1)C(=O)C(O)C(F)(F)F (centres unmarked) [Example 34],<0.05 mL/min/mg protein
7,CC(C)N(CCN1CCC(c2noc3cc(F)ccc23)CC1)C(=O)CCO [Example 35],<0.05 mL/min/mg protein
8,CCN(CCN1CCC(c2noc3cc(F)ccc23)CC1)C(=O)C(F)(F)CO [Example 36],<0.05 mL/min/mg protein
9,CCN(CCN1CCC(c2noc3cc(F)ccc23)CC1)C(=O)C(C)CO (centres unmarked) [Example 37],<0.05 mL/min/mg protein
10,CCN(CCCN1CCC(c2noc3cc(F)ccc23)CC1)C(=O)[C@H](C)O [Example 38],<0.05 mL/min/mg protein
11,CCCN(CCN1CCC(c2noc3cc(F)ccc23)CC1)C(=O)C(C)O (centres unmarked) [Example 39],<0.05 mL/min/mg protein
12,[2H]C(C)(O)C(=O)N(CC)CCN1CCC(c2noc3cc(F)ccc23)CC1 (centres unmarked) [Example 40],<0.05 mL/min/mg protein
13,CC(C)N(CCN1CCC(c2noc3cc(F)ccc23)CC1)C(=O)[C@H](C)O [Example 41],<0.05 mL/min/mg protein
14,CC(C)N(CCN1CCC(c2noc3cc(F)ccc23)CC1)C(=O)[C@@H](C)O [Example 42],<0.05 mL/min/mg protein
15,CCN(CCN1CCC(c2noc3cc(F)ccc23)CC1)C(=O)[C@H]1CC[C@H](O)CC1 [Example 43],<0.05 mL/min/mg protein
16,CCN(CCN1CCC(c2noc3cc(F)ccc23)CC1)C(=O)[C@H]1CC[C@@H](O)CC1 [Example 44],<0.05 mL/min/mg protein
17,CCN(CCN1CCC(c2noc3ccc(F)cc23)CC1)C(=O)[C@H](C)O [Example 45],<0.05 mL/min/mg protein
18,CCN(CCN1CCC(c2noc3cc(F)ccc23)CC1)C(=O)C1CC(O)C1 (centres unmarked) [Example 46],<0.05 mL/min/mg protein
19,CCN(CCN1CCC(c2c[nH]c3ccccc23)CC1)C(=O)CCO [Example 47],<0.05 mL/min/mg protein

# The next lines start with the values.
row,Metabolic stability in human hepatic microsome,Structure (SMILES)
1,<0.05 mL/min/mg protein,CCN(CCN1CCC(c2c[nH]c3cc(F)ccc23)CC1)C(=O)CCO [Example 48]
2,<0.05 mL/min/mg protein,CCN(CCN1CCC(c2c[nH]c3ccccc23)CC1)C(=O)[C@@H](C)O [Example 49]
3,<0.05 mL/min/mg protein,CCN(CCN1CCC(n2ccc3cc(F)ccc32)CC1)C(=O)C(C)O (centres unmarked) [Example 50]
4,<0.05 mL/min/mg protein,CCN(CCCN1CCC(c2noc3cc(F)ccc23)CC1)S(=O)(=O)CCO [Example 53]
5,<0.05 mL/min/mg protein,CCN(CCCN1CCC(c2noc3ccccc23)CC1)S(=O)(=O)C(C)CO (centres unmarked) [Example 54]
6,0.059 mL/min/mg protein,CCN(CCCN1CCN(c2noc3cc(F)ccc23)CC1)S(=O)(=O)C(C)CO (centres unmarked) [Example 55]
7,<0.05 mL/min/mg protein,CCN(CCCN1CCC(c2noc3cc(F)ccc23)CC1)S(=O)(=O)C(C)CO (centres unmarked) [Example 56]
8,0.06 mL/min/mg protein,CCN(CCN1CCC(c2c[nH]c3ccccc23)CC1)S(=O)(=O)CCO [Example 57]
9,<0.05 mL/min/mg protein,CCN(CCN1CCC(c2noc3cc(F)c(C)cc23)CC1)S(=O)(=O)CCO [Example 58]
10,0.079 mL/min/mg protein,CCN(CCN1CCC(c2noc3ccc(C)cc23)CC1)S(=O)(=O)CCO [Example 59]
11,<0.05 mL/min/mg protein,CCN(CCN1CCC(c2noc3ccccc23)CC1)S(=O)(=O)CCO [Example 61]
12,<0.05 mL/min/mg protein,CCN(CCN1CCC(c2c[nH]c3cc(F)ccc23)CC1)S(=O)(=O)CCO [Example 62]
13,<0.05 mL/min/mg protein,CCN(CCN1CCC(n2ncc3cc(F)ccc32)CC1)S(=O)(=O)CCO [Example 63]
14,0.097 mL/min/mg protein,CCN(CCN1CCC(n2ncc3cc(F)ccc32)CC1)S(=O)(=O)C(C)CO (centres unmarked) [Example 64]
15,<0.05 mL/min/mg protein,CCN(CCN1CCC(c2noc3cc(F)ccc23)CC1)C(=O)C1CNCC1O (centres unmarked) [Example 66]
16,<0.05 mL/min/mg protein,CCN(CCN1CCC(c2noc3cc(F)ccc23)CC1)C(=O)C1CNCCC1O (centres unmarked) [Example 67]
17,<0.05 mL/min/mg protein,CCN(CCN1CCC(c2noc3cc(F)ccc23)CC1)C(=O)[C@H]1NCC[C@H]1O [Example 68]
18,<0.05 mL/min/mg protein,CCN(CCN1CCC(c2noc3cc(F)ccc23)CC1)C(=O)C1(O)CCCNC1 (centres unmarked) [Example 69]

# Source: patent publication US12503463B2, “Aliphatic acid amide derivative” (Sumitomo Pharma Co., Ltd., priority 2019, dated 2025)
